Read-outs that look alike come from different tables or passages of the source.
Legend:
[1] = biological target: T1, Greatwall kinase (GWL, MASTL) (Homo sapiens, UniProt Q96GX5, K72M); experiment: HTRF kinase assay with purified full-length GWL (K72M) and ENSA; format: biochemical
T1 construct: full-length
T1 sequence (Q96GX5 1-879 K72M): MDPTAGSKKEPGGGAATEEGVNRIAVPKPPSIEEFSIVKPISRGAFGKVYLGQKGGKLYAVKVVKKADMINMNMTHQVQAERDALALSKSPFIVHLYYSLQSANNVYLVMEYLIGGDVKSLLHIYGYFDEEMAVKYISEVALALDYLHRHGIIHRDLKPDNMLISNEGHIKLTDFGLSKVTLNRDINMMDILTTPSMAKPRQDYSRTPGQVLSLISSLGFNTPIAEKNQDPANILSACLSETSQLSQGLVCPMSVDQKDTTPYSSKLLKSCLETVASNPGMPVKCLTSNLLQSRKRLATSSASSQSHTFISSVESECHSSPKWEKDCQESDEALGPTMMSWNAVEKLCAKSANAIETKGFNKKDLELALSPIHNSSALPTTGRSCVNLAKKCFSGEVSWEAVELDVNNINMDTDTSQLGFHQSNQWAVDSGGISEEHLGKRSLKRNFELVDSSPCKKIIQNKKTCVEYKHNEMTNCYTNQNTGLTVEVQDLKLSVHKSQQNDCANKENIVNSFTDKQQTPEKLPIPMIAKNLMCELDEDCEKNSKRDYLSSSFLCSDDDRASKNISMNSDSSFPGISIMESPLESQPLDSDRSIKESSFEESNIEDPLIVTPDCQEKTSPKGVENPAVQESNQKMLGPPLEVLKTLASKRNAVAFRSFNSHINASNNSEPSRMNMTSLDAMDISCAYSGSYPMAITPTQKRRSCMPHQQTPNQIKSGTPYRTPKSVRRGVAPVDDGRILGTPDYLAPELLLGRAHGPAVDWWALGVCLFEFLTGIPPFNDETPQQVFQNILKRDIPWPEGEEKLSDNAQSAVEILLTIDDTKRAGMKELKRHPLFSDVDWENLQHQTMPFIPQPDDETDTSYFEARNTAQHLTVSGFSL

physchem = experiment: physchem; set-up: aqueous solubility at pH 7.0; settings: pH 7.0; buffer pH 7.0; aqueous buffer pH 7.0
Description: (§1) We selected compound 1 as the lead exemplar of cluster 3 and leveraged it as a foundation for subsequent drug development (Fig. 1a). Structure-activity relationship studies and pharmacokinetic profiling produced several derivative molecules, of which compound 21 provided the best combination of outstanding inhibitory potential, low clearance in mouse microsomes and acceptable solubility (Fig. 1a–c and Supplementary Tables 1–4). […] This assessment was supported by structural modelling of the interaction between compound 21 and the active site of GWL (Fig. 1d). In further support of its GWL-targeting properties, compound 21 diminished the phosphorylation of the canonical GWL substrate ENSA(S67) in Xenopus laevis cytostatic factor (CSF) egg extract (Supplementary Fig. 2). Having satisfied the criteria of prospective GWL inhibitor, the racemic compound 21 was registered as UOS-00054604 and, for the remainder of the manuscript, is referred to as C-604.

in vitro [2] = experiment: in vitro; set-up: intrinsic clearance in human microsomes; settings: liver microsomes; human liver microsomes; read-out: Cl (human)
Description: as §1

in vitro [3] = experiment: in vitro; set-up: intrinsic clearance in mouse microsomes; settings: liver microsomes; mouse liver microsomes
Description: as §1

Work on `CNC(=O)c1c[nH]c2ncc(-c3ccc(OCCN4CCC(c5ccccc5)C4)cc3)nc12` (racemic) [compound 21, C-604] yielded an IC50 [1] of 9 ± 7.7 nM, a solubility (physchem) of 72 µM and a microsomal CLint (in vitro [2]) of 13 µL/min/mg. The microsomal CLint (in vitro [3]) was 24 µL/min/mg.

From article PMC12391391, “The balance between B55α and Greatwall expression levels predicts sensitivity to Greatwall inhibition in cancer cells” (Nature Communications, 2025)
